Measured values: article PMC7274485, “A symbiotic bacterium of shipworms produces a compound with broad spectrum anti-apicomplexan activity” (PLoS Pathogens, 2020)
pEC50: −log10 of the molar value.

How the values were obtained:
[1] = test system: extracellular T. gondii tachyzoites; experiment: Extracellular T. gondii tachyzoites treated 2 hours, washed, then infection of HFF quantified by luciferase; assay type: cell-based, Toxoplasma gondii
Experimental: Because we had tested the compound against intracellular parasites, it was unclear if trtE was exerting a direct effect on the parasites, or if trtE acted indirectly on the parasites by modulating host cell pathways. […] Growth of the parasites was measured 24 hours later by luciferase expression.
To determine the direct effect of trtE on T. gondii, RH GFP/Luc tachyzoites that had exited from host cells were combined with trtE at varying concentrations and incubated at 37°C and 5% CO2 for 2 hours. Tachyzoites in 0.01% DMSO were run in parallel. The parasites were washed to remove compound and added to 96-well plates containing confluent HFFs. Growth was monitored 24 hours later using Bright-glo Luciferase assay system (Promega). Percent inhibition was calculated as ((luciferase reading DMSO treated parasites—luciferase reading of trtE treated parasites)/ luciferase reading DMSO treated parasites)*100.

[2] = test system: T. gondii ME49; experiment: Length of treatment needed to kill intracellular T. gondii (compound wash-off, luciferase 72 hours later); assay type: cell-based, Toxoplasma gondii; settings: 30 nM trtE, ME49 in HFF, treated 0.5 to 4 hours, washed off, growth 72 hours after treatment
Experimental: To test this hypothesis, we infected HFF cells with luciferase-expressing T. gondii ME49 for 24 hours, then treated infected cells with trtE for 30 minutes to 4 hours. The compound was then washed off the infected cells, and parasite growth was quantified 3 days after the removal of the compound. Parasites treated for at least 2 hours were killed by trtE (Fig 2E).
T. gondii parasite lines were maintained by passage in HFFs as previously described. To determine the effect of trtE on intracellular parasites, 96 well plates containing confluent HFFs were infected with T. gondii strain ME49 modified to express green fluorescent protein (GFP) and luciferase (Luc), generated as described or T. gondii RH strain GFP/Luc (a kind gift from Dr. Jeroen Saeij, UC Davis). […] Growth was monitored by luciferase expression using Bright-glo Luciferase assay system (Promega Corp., Madison, WI). To determine the length of treatment needed to kill intracellular parasites, trtE was added to infected cells and then the compound removed 0.5, 1, 2 and 4 hours later by washing the monolayer three times with complete media. Infected cells were then incubated for 72 hours before growth was quantified by luciferase expression. For time-lapse images, HFFs were seeded into 35 mm glass bottom microwell dishes (MatTek Corporation, Ashland, MA). […]

[3] = test system: Babesia bovis; experiment: B. bovis-infected erythrocyte proliferation, SYBR green incorporation; assay type: cell-based; settings: in Bos taurus, infected erythrocytes, 72 hours, read-out: EC50 against B. bovis
Experimental: B. bovis and B. bigemina inhibitor response assays were adapted from components of [79–81]. B. bovis and B. bigemina parasites were maintained in bovine erythrocytes under microaerophilic stationary phase conditions in vitro as described elsewhere. Prior to use in growth studies parasites were grown in erythrocytes from which leukocytes were depleted. Cultures were set up at 0.20% parasitized erythrocytes, in quadruplicate, in complete medium supplemented with trtE. Final concentration of DMSO in all cultures was 1%, and was consistent throughout. Following 72h growth under 90% nitrogen, 5% oxygen, 5% carbon dioxide cells were harvested by thorough resuspension, and transferred to a black, opaque 96-well plate. Cells were freeze-thawed at -80°C overnight, then mixed with an equal volume of SYBR Green lysis buffer. Lysis buffer was composed of 20 mM Tris, pH 7.5, 5 mM EDTA, 0.008% (w/v) saponin, 0.08% (v/v) NP40, and contained 0.2 μl 10,000x SYBR Green I dye ml^-1 (S7563; Invitrogen; Carlsbad, CA). Plates were incubated for one hour at room temperature in the dark prior to reading in a microplate reader, at 485 nm excitation and 528 nm emission wavelengths.

[4] = test system: Sarcocystis neurona; experiment: Sarcocystis neurona GFP/Luc merozoite growth in bovine turbinate cells, luciferase expression; assay type: cell-based; settings: 24 hours treatment, read-out: EC50 against S. neurona
Experimental: Culture of Sarcocystis neurona GFP/Luc merozoites in bovine turbinate cells and in vitro drug response assays were conducted as previously described.
A. Bovine turbinate cells infected with luciferase expressing Sarcocystis neurona merozoites were treated with trtE for 24 hours and parasite growth evaluated by luciferase expression. […] B. Theileria equi-infected erythrocytes were incubated with trtE or DMSO vehicle control and proliferation was measured after 72 hours by SYBR green incorporation. Percent proliferation was calculated relative to DMSO treated controls. […] (DOCX) Click here for additional data file.

[5] = test system: Toxoplasma gondii bradyzoites; experiment: Very preliminary study against T. gondii bradyzoites; assay type: cell-based; settings: close to the level of toxicity for the host cells
[6] = Pilot pharmacokinetic study in lambs; assay type: in vivo
Source text: A full PK/PD study of trtE in mice and lambs has recently been funded, so in the near future we will be able to answer these questions.

[7] = test system: HCT-8 colonic cancer cells
Experimental: (§1) Toxicity was evaluated by measuring cellular ATP concentrations.
(§2) HCT8, HFF and BT cells were seeded in 96-well plates to achieve 20–30% confluence after 24 hours of growth.

[8] = test system: Human Foreskin fibroblasts; experiment: Cytotoxicity for host cells, cellular ATP (CellTiter-Glo): HFF
Experimental: as §1, §2

[9] = test system: Bovine turbinate cells; experiment: Cytotoxicity for host cells, cellular ATP (CellTiter-Glo): BT cells
Experimental: as §1, §2

[10] = 20–30% confluency, 24 hours, cellular ATP

Compound: CC1CCC=CC=CCCC(O)CC(=O)CC2CCC(C)C3(O2)O[B-]24OC(C(=O)O1)C1(OC(CCC1C)CC(=O)CC(O)CCC=CC=CCCC(C)OC(=O)C3O2)O4 (centres unmarked) [trtE, tartrolon E]
- pEC50 ([1]; Toxoplasma gondii, RH strain tachyzoites treated 2 hours, washed, growth in HFF after 24 hours, read-out: EC50 against extracellular T. gondii tachyzoites): 8.51
- Effect of excess K+ ions on trtE activity against extracellular tachyzoites ([1]; addition of excess K+ ions, no positive control): had no effect
- Length of trtE treatment after which parasites were killed [2]: kills the parasites after two hours of treatment
- pEC50 [3]: 7.80
- pEC50 [4]: 7.89
- Concentration at which trtE was effective against bradyzoites [5]: ~ 1 µM
- Absorption from the intestine ([6]; in vivo): rapidly absorbed from the intestine
- Tolerability in lambs ([6]; pilot study, lambs): tolerated by the animals
- TC50 (median toxic concentration) for HCT-8 [7, 10]: 6300 nM
- Selectivity Index, C. parvum vs HCT-8 ([7]; TC50/EC50): 1636
- TC50 (median toxic concentration) for HFF [8, 10]: 7900 nM
- Selectivity Index, T. gondii vs Human Foreskin fibroblasts ([8]; TC50/EC50): 2633
- TC50 (median toxic concentration) for BT cells [9, 10]: 16800 nM
- Selectivity Index, S. neurona vs Bovine turbinate cells ([9]; TC50/EC50): 1302
